Test results from ChEMBL document CHEMBL1149344, “Discovery of aminoquinazolines as potent, orally bioavailable inhibitors of Lck: synthesis, SAR, and in vivo anti-inflammatory activity” (J Med Chem, 2006).
In brackets after ≈: the same amount, converted by molar mass.

Experiments:
[1] = Tmax in Sprague-Dawley rat at 5 mg/kg, po; assay type: ADME, organism-based; set-up: dose 5 mg/kg, route oral; settings: in vivo
Mus musculus [2] = test: Inhibition of anti CD3-induced IL2 production in BALB/c mouse at 10 mg/kg, po relative to control; assay type: functional
Mus musculus [3] = test: Inhibition of anti CD3-induced IL2 production in BALB/c mouse at 100 mg/kg, po relative to control; assay type: functional
[4] = target: T1, Tyrosine-protein kinase JAK3 (Homo sapiens, UniProt P52333); test: Inhibition of Jak3 by HTRF kinase assay
T1 sequence (P52333 whole entry): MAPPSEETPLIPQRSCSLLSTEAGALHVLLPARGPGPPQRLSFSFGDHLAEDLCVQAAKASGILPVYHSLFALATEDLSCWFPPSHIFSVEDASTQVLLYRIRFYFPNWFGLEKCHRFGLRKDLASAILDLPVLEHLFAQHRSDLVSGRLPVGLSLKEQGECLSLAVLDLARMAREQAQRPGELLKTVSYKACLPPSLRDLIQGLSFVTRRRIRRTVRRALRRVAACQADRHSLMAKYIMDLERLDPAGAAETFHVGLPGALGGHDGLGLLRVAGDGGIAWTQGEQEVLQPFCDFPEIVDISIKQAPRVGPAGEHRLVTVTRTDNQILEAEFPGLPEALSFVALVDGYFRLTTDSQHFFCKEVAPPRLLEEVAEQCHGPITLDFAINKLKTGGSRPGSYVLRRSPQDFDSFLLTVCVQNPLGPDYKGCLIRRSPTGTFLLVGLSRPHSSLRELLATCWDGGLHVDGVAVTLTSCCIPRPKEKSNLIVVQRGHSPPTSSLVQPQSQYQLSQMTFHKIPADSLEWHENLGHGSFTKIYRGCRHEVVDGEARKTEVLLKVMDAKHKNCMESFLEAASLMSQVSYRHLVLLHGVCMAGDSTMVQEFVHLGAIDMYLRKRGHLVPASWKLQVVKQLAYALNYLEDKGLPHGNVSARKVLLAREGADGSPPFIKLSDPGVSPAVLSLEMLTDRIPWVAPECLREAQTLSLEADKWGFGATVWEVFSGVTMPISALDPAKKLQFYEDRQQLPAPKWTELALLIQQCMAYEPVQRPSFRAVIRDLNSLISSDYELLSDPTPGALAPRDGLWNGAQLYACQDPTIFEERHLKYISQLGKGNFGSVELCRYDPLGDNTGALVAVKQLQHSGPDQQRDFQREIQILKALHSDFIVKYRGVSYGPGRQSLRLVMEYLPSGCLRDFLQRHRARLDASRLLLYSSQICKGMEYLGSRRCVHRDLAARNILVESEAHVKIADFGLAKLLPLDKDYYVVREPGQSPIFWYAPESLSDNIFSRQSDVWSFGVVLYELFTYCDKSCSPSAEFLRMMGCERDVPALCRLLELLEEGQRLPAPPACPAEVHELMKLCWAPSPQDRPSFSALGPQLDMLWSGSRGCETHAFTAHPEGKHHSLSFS

Homo sapiens [5] = species: Homo sapiens; test: Inhibition of […] TNF alpha production in human whole blood; assay type: functional
[6] = Cmax in Sprague-Dawley rat at 5 mg/kg, po; assay type: ADME, organism-based; set-up: dose 5 mg/kg, route oral; settings: in vivo
Mus musculus [7] = test: Unbound plasma concentration in po dosed BALB/c mouse; assay type: ADME, organism-based
[8] = target: Mitogen-activated protein kinase 9 (Homo sapiens, UniProt P45984); test: Inhibition of JNK2 by HTRF kinase assay
[9] = target: Mitogen-activated protein kinase 14 (Homo sapiens, UniProt Q16539); test: Inhibition of p38-alpha by HTRF kinase assay
Chain of Mitogen-activated protein kinase 14 (Q16539 whole entry): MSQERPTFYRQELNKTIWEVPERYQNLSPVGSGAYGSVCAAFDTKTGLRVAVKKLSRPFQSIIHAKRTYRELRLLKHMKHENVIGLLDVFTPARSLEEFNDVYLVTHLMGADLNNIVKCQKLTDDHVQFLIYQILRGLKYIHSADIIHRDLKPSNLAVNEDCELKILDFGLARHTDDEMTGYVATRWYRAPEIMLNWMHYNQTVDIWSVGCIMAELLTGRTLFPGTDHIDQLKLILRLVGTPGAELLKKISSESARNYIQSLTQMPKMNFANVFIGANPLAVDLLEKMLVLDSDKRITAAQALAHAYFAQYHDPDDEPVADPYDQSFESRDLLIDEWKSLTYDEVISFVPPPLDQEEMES

[10] = Volume of distribution in Sprague-Dawley rat at 1 mg/kg, iv; assay type: ADME, organism-based; set-up: dose 1 mg/kg, route intravenous; settings: in vivo, read-out: Vss
[11] = Solubility in fasted state simulated intestinal fluid at pH 6.8; assay type: physicochemical; settings: read-out: Solubility
[12] = target: Cyclin-dependent kinase 5 (Homo sapiens, UniProt Q00535); test: Inhibition of CDK5 by HTRF kinase assay
Chain of Cyclin-dependent kinase 5 (Q00535 whole entry): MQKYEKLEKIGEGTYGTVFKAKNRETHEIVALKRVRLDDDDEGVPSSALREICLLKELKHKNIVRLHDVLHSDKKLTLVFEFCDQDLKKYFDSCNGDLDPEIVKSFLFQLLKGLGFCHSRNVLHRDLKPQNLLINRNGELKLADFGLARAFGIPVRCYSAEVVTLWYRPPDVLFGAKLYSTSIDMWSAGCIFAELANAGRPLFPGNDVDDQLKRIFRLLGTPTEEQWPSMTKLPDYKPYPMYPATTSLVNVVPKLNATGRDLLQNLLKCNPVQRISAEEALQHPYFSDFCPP

[13] = target: Mitogen-activated protein kinase 10 (Homo sapiens, UniProt P53779); test: Inhibition of JNK3 by HTRF kinase assay
Chain of Mitogen-activated protein kinase 10 (P53779 whole entry): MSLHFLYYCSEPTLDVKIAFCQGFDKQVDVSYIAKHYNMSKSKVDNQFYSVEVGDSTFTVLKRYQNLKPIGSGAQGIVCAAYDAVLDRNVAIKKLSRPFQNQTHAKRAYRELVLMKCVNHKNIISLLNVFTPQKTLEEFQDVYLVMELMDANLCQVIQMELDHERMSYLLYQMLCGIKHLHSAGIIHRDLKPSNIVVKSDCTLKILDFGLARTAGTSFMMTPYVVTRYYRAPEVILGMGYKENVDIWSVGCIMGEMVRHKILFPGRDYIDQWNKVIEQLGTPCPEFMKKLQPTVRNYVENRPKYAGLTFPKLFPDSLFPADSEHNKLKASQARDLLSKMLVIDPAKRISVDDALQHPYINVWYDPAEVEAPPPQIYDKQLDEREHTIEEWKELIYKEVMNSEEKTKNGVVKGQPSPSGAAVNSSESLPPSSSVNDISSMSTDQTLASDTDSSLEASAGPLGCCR

[14] = target: Serine/threonine-protein kinase PAK 2 (Homo sapiens, UniProt Q13177); test: Inhibition of Pak2 by HTRF kinase assay
Chain of Serine/threonine-protein kinase PAK 2 (Q13177 whole entry): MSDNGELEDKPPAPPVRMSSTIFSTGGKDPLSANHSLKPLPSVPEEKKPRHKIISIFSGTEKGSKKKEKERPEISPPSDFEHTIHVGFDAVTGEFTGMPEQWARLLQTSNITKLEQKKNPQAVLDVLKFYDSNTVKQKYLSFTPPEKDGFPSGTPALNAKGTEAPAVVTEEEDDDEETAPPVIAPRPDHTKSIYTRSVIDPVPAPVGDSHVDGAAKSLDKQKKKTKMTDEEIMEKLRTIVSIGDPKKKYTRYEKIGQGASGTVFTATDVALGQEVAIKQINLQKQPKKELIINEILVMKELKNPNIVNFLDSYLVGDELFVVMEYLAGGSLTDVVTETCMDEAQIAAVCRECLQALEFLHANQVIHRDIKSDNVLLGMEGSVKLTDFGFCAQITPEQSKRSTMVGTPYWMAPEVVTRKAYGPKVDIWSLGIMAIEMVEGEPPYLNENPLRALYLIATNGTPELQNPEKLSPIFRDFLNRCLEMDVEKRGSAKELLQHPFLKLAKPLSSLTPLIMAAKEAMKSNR

[15] = target: Tyrosine-protein kinase Lck (Homo sapiens, UniProt P06239)
Chain of Tyrosine-protein kinase Lck (P06239 whole entry): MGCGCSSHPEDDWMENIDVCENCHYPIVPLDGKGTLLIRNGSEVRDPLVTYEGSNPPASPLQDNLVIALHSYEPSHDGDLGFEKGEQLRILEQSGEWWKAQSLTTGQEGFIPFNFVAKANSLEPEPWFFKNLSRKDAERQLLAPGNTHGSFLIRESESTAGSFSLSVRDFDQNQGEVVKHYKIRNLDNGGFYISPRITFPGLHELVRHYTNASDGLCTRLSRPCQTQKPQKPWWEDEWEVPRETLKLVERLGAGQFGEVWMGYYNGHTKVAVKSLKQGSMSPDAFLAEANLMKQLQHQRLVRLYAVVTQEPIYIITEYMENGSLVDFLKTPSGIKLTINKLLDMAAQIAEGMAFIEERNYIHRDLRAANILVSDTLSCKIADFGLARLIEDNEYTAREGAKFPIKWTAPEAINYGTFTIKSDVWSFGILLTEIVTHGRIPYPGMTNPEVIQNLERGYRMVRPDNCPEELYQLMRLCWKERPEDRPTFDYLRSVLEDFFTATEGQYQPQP
Description: Inhibition of Lck by HTRF kinase assay

T-cell [16] = test: Inhibition of anti CD3/CD28-induced IL2 secretion in human T cells; assay type: functional, cell-based
T-cell [17] = test: Inhibition of human T cell proliferation by mixed lymphocyte reaction
[18] = target: Tyrosine-protein kinase ZAP-70 (Homo sapiens, UniProt P43403); test: Inhibition of Zap70 by HTRF kinase assay
[19] = target: Non-receptor tyrosine-protein kinase TYK2 (Homo sapiens, UniProt P29597); test: Inhibition of Tyk2 by HTRF kinase assay
Chain of Non-receptor tyrosine-protein kinase TYK2 (P29597 whole entry): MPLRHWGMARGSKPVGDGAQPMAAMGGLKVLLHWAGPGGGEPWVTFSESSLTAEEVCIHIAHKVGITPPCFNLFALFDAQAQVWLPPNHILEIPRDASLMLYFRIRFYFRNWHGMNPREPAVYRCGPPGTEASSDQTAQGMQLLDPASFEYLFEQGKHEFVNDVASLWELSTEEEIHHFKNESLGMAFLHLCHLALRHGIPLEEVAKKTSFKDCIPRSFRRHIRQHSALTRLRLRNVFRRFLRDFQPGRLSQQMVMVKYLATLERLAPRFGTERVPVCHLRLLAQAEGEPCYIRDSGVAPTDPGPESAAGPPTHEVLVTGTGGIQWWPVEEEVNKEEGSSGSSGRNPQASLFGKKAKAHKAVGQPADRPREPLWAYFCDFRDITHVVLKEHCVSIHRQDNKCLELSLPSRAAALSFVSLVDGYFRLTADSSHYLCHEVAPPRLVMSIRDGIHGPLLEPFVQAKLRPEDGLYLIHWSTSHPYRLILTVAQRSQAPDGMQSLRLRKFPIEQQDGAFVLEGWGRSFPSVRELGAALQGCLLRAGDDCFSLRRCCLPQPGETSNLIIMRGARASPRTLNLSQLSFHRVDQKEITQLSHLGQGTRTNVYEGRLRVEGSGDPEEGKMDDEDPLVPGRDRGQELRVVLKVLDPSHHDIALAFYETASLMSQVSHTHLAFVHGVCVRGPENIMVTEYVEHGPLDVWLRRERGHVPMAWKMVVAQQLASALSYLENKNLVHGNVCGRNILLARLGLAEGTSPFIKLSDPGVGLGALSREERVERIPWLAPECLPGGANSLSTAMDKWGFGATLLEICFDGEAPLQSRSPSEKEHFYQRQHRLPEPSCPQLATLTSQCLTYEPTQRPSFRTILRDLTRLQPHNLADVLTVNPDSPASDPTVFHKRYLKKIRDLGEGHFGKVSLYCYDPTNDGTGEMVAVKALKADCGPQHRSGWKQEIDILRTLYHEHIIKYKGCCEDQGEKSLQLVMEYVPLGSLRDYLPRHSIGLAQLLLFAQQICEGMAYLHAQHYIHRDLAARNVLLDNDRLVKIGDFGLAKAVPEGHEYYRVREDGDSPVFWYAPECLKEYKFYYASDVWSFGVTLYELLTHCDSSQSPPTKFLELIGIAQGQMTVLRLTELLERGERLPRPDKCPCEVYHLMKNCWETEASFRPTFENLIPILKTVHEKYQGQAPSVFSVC

[20] = Half life in Sprague-Dawley rat at 1 mg/kg, iv; assay type: ADME, organism-based; set-up: dose 1 mg/kg, route intravenous; settings: in vivo
Mus musculus [21] = test: Mean terminal plasma concentration in BALB/c mouse at 11 mg/kg, po after […]; assay type: ADME, organism-based; set-up: dose 11 mg/kg, route oral
[22] = Protein binding in mouse plasma; assay type: ADME; settings: read-out: PPB (converted)
[23] = target: Proto-oncogene tyrosine-protein kinase Src (Homo sapiens, UniProt P12931); test: Inhibition of Src by HTRF kinase assay
Mus musculus [24] = test: Inhibition of anti CD3-induced IL2 production in BALB/c mouse at 30 mg/kg, po relative to control; assay type: functional
[25] = AUC (0-infinity) in Sprague-Dawley rat at 5 mg/kg, po; assay type: ADME, organism-based; set-up: time infinity, dose 5 mg/kg, route oral; settings: plasma
[26] = Bioavailability in Sprague-Dawley rat at 5 mg/kg, po; assay type: ADME, organism-based; settings: in vivo
[27] = target: Mitogen-activated protein kinase 8 (Homo sapiens, UniProt P45983); test: Inhibition of JNK1 by HTRF kinase assay
[28] = target: Ribosomal protein S6 kinase alpha-5 (Homo sapiens, UniProt O75582); test: Inhibition of MSK1 by HTRF kinase assay
Chain of Ribosomal protein S6 kinase alpha-5 (O75582 whole entry): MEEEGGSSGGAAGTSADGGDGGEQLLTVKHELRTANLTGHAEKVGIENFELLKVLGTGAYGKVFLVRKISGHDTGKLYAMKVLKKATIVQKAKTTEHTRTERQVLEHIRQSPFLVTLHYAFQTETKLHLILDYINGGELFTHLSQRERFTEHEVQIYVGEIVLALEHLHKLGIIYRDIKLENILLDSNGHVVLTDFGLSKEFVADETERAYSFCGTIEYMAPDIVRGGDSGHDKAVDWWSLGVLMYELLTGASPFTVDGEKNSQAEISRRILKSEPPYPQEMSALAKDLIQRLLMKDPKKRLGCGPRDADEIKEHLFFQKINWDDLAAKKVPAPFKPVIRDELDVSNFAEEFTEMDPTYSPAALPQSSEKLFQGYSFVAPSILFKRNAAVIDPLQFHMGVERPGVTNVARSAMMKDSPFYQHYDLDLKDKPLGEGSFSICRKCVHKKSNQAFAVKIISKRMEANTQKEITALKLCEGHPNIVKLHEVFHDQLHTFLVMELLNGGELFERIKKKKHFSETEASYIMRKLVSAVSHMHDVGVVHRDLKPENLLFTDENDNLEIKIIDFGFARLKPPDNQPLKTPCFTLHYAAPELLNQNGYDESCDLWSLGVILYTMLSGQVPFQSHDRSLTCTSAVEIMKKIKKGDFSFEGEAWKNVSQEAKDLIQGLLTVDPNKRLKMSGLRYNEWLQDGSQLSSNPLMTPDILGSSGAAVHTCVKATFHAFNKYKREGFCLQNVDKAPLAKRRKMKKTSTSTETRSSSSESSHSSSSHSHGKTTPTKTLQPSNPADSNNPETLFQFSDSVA

[29] = target: Tyrosine-protein kinase SYK (Homo sapiens, UniProt P43405); test: Inhibition of Syk by HTRF kinase assay
Homo sapiens [30] = species: Homo sapiens; test: Inhibition of anti CD3-induced IL2 production in human whole blood; assay type: functional
[31] = target: Tyrosine-protein kinase ITK/TSK (Homo sapiens, UniProt Q08881); test: Inhibition of Itk by HTRF kinase assay
[32] = target: RAC-alpha serine/threonine-protein kinase (Homo sapiens, UniProt P31749); test: Inhibition of PKBalpha by HTRF kinase assay
Chain of RAC-alpha serine/threonine-protein kinase (P31749 whole entry): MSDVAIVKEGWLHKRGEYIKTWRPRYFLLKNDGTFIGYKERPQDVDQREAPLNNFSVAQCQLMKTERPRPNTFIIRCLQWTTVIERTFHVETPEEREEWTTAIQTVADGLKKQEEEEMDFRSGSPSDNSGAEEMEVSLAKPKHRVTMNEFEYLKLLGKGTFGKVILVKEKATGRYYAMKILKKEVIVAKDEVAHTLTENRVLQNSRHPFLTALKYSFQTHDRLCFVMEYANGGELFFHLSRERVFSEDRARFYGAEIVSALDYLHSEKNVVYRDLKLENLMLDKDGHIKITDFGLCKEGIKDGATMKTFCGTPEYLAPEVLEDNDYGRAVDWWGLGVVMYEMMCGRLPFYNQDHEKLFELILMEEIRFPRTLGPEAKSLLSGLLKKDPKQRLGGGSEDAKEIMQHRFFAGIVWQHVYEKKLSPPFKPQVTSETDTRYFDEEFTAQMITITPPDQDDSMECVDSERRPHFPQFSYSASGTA

[33] = Clearance in Sprague-Dawley rat at 1 mg/kg, iv; assay type: ADME, organism-based; set-up: dose 1 mg/kg, route intravenous; settings: in vivo
[34] = Cmax in Sprague-Dawley rat at 2 mg/kg, po; assay type: ADME, organism-based; set-up: dose 2 mg/kg, route oral; settings: in vivo
[35] = Bioavailability in Sprague-Dawley rat at 2 mg/kg, po; assay type: ADME, organism-based; settings: in vivo
[36] = AUC (0-infinity) in Sprague-Dawley rat at 2 mg/kg, po; assay type: ADME, organism-based; set-up: time infinity, dose 2 mg/kg, route oral; settings: plasma
[37] = Clearance in Sprague-Dawley rat at 5 mg/kg, iv; assay type: ADME, organism-based; set-up: dose 5 mg/kg, route intravenous; settings: in vivo
[38] = Half life in Sprague-Dawley rat at 5 mg/kg, iv; assay type: ADME, organism-based; set-up: dose 5 mg/kg, route intravenous; settings: in vivo
[39] = target: cAMP-dependent protein kinase catalytic subunit beta (Homo sapiens, UniProt P22694); test: Inhibition of PKAbeta by HTRF kinase assay
[40] = target: Vascular endothelial growth factor receptor 2 (Homo sapiens, UniProt P35968); test: Inhibition of KDR by HTRF kinase assay
[41] = Volume of distribution in Sprague-Dawley rat at 5 mg/kg, iv; assay type: ADME, organism-based; set-up: dose 5 mg/kg, route intravenous; settings: in vivo, read-out: Vss
[42] = target: Tyrosine-protein kinase BTK (Homo sapiens, UniProt Q06187); test: Inhibition of Btk by HTRF kinase assay
Mus musculus [43] = test: Mean terminal plasma concentration in BALB/c mouse at 22 mg/kg, po after […]; assay type: ADME, organism-based; set-up: dose 22 mg/kg, route oral
[44] = Tmax in Sprague-Dawley rat at 2 mg/kg, po; assay type: ADME, organism-based; set-up: dose 2 mg/kg, route oral; settings: in vivo

| SMILES | inhibition in vivo at 10 mg/kg (Mus musculus [2]) | inhibition in vivo at 100 mg/kg (Mus musculus [3]) | IC50 [4] | Activity (Homo sapiens [5]) | IC50 [8] | IC50 [9] | IC50 [12] | IC50 [13] | IC50 [14] | IC50 [15] | IC50 (T-cell [16]) | IC50 (T-cell [17]) | IC50 [18] | IC50 [19] | IC50 [23] | inhibition in vivo at 30 mg/kg (Mus musculus [24]) | IC50 [27] | IC50 [28] | IC50 [29] | Activity (Homo sapiens [30]) | further results |
| --- | --- | --- | --- | --- | --- | --- | --- | --- | --- | --- | --- | --- | --- | --- | --- | --- | --- | --- | --- | --- | --- |
| Cc1ccc(C(=O)Nc2cccc(C(F)(F)F)c2)cc1-c1ccc2nc(NCCN3CCOCC3)ncc2c1 | 49% | 91% | 72 nM | >2.5 µM | 173 nM | 3 nM | > 25000 nM | 145 nM | > 25000 nM | 0.2 nM | 21 nM | 30 nM | > 25000 nM | 1830 nM | 2 nM | 84% | 389 nM | > 25000 nM | 292 nM | 0.272 µM | Tmax [1]: 3 h; Cmax [6]: 128 ng/mL; EC50 (Mus musculus [7]): 18 nM; Vd [10]: 5.04 L/kg; solubility [11]: 159 µg/mL (≈ 297 µM); half-life [20]: 1.8 h; EC50 (Mus musculus [21]): 630 nM; fraction unbound [22]: 0.029; AUC(0-inf) [25]: 668 ng·h/mL; bioavailability [26]: 38%; IC50 [31]: > 25000 nM; IC50 [32]: > 25000 nM; clearance [33]: 48 mL/min/kg |
| CNc1ncc2cc(-c3cc(C(=O)Nc4cc(C(F)(F)F)ccc4OC4CCN(C)CC4)ccc3C)ccc2n1 | -3% | 96% | 868 nM | >2.5 µM | > 25000 nM | 9 nM | > 25000 nM | > 5000 nM | > 25000 nM | 0.5 nM | 36 nM | 243 nM | > 25000 nM | 2730 nM | 17 nM | 72% | > 10000 nM | > 25000 nM | 1110 nM | 0.113 µM | Cmax [34]: 121 ng/mL; bioavailability [35]: 55%; AUC(0-inf) [36]: 1370 ng·h/mL; clearance [37]: 13.9 mL/min/kg; half-life [38]: 6.5 h; IC50 [39]: > 25000 nM; IC50 [40]: 17 nM; Vd [41]: 7.63 L/kg; IC50 [42]: 3330 nM; EC50 (Mus musculus [43]): 1400 nM; IC50 [31]: > 5000 nM; IC50 [32]: > 25000 nM; Tmax [44]: 6 h |
